Like-named read-outs stand apart in the source and are kept apart here.
Tests used:
E.coli LPS induced shock = settings: Fig 1
Procedure: In a first experiment outbred mice were divided into groups and received treatment either with a hamster anti-murine TNF antibody TN3 19.12 or with the xanthine derivative, pentoxifylline.
Each group of animals received 60mg/kg E.coli LPS by intravenous injection into a tail vein.
Those groups of animals treated with TN3 19.12 received between 0.1 and 30mg/kg of the antibody by intravenous injection of 0.1ml of liquid into the tail vein 2 hours before LPS administration.
Those groups to be treated with pentoxifylline received between 1mg/kg and 300mg/kg intravenously five minutes prior to LPS administration.
In control experiments animals received an injection of an equivalent volume of saline.
The groups received one of three different treatment as follows: • A) Control - received 60mg/kg E.coli LPS intravenously followed by saline injection; • B) Received 1mg/kg TN3 19.12 i.v. 2 hrs prior to challenge with 60mg/kg E.coli LPS i.v. and 1mg/kg pentoxifylline i.v. 5 mins prior to challenge; • C) As B) but these mice also received repeat doses of 1mg/kg pentoxifylline 24,48 and 72 hours after LPS challenge.

[1] = test system: Salmonella abortus equi LPS induced shock; test: Salmonella abortus equi LPS induced shock model in galactosamine sensitised mice (inhibition of mortality); assay type: in vivo, C57BL mice; settings: 100mg/kg pentoxifylline alone; Fig 5
Procedure: Similar experiments to those described above were carried out in galactosamine sensitised C57BL mice which were challenged with LPS from Salmonella abortus equi. Mortality was measured 96 hrs after the LPS challenge.

Structure (SMILES): CC(=O)CCCCn1c(=O)c2c(ncn2C)n(C)c1=O [pentoxifylline, 3,7-dimethyl-1-(5-oxohexyl)xanthine]
- effect on mortality (mean deaths per experiment) (E.coli LPS induced shock; pentoxifylline alone 1mg/kg i.v. five minutes prior to 60mg/kg E.coli LPS i.v.): no effect
- effect on mortality (mean deaths per experiment) (E.coli LPS induced shock; pentoxifylline alone at higher doses than 1mg/kg (up to 300mg/kg) i.v. five minutes prior to LPS): accelerated mortality
- protective effect (mortality) [1]: no protective effect
